The values that follow are results of earlier work, collected in paper PMC7522491 (Molecular Metabolism, 2020).

For data set [1] the following is noted: infusion into the portal circulation, dogs.
For data set [2] the following is noted: administration in mice.

Where no end group is shown, it is not given here.

For `CCCCCCCC/C=C\CCCCCCCC(=O)O` [oleate], in data set [1], the hepatic insulin clearance entry is “suppressed hepatic insulin clearance”.

Regarding “glucagon-like peptide-1 (HAEGTFTSDVSSYLEGQAAKEFIAWLVKGR; ends and bridges not checked; UniProt P55095 98-127, looked up) [GLP-1, incretin hormone administered in mice (literature)]”, the “blood insulin levels / insulin clearance” value in data set [2] is “increased blood insulin levels in part by reducing insulin clearance”.
